{
  "source": "BindingDB's records for PubMed 6123593",
  "about": "(Eli Lilly, 1982)",
  "key": {"Histamine H1 receptor": {"biological_target": "Histamine H1 receptor (Rattus norvegicus, UniProt P31390)", "sequence (P31390 whole entry)": "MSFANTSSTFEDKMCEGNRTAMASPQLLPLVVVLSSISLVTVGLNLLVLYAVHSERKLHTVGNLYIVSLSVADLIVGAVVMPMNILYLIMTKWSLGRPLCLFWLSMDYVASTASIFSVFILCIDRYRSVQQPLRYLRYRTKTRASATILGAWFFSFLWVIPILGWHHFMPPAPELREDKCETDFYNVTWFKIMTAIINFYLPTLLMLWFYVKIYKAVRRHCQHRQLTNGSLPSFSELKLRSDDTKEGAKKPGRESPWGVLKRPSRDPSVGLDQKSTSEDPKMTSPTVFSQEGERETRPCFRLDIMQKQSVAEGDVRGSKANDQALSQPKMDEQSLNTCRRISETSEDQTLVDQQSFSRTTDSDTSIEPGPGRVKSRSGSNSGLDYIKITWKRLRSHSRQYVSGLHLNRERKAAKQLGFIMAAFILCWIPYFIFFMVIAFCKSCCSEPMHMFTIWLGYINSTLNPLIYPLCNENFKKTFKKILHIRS"}, "[1]": {"biological_target": "T1, Alpha-2C adrenergic receptor (Rattus norvegicus, UniProt P22086)", "T1 sequence (P22086 whole entry)": "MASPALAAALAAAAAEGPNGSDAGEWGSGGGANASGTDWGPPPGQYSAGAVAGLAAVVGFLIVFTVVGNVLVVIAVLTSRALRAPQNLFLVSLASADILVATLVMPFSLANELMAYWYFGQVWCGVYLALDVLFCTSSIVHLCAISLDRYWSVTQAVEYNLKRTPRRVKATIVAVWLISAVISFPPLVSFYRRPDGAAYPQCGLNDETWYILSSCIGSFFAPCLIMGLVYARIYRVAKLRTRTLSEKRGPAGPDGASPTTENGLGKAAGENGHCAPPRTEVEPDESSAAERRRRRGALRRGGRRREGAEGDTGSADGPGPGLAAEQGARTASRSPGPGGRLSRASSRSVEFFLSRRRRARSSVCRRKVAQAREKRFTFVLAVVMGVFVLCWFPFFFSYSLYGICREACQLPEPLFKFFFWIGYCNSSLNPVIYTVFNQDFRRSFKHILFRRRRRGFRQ"}, "[2]": {"biological_target": "T2, Muscarinic acetylcholine receptor M2 (Rattus norvegicus, UniProt P10980)", "T2 sequence (P10980 whole entry)": "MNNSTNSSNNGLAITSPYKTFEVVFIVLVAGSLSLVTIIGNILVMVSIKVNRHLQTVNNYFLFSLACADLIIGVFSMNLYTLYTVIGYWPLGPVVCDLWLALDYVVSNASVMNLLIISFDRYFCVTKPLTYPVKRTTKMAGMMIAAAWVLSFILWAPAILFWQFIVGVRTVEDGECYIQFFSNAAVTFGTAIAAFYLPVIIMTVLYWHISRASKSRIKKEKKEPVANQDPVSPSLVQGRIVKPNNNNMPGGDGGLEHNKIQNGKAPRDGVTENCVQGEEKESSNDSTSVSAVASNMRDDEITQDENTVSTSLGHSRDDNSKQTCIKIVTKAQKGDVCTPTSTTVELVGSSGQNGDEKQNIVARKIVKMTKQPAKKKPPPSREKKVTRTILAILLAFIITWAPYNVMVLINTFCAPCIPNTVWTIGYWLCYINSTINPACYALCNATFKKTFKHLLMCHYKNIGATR"}},
  "data": [
    {"smiles": "CN(C)CCCN1c2ccccc2CCc2ccccc21", "values": [
      {"measurement": "Ki", "setting": "Histamine H1 receptor", "result": 0.031, "unit": "µM"},
      {"measurement": "Ki", "setting": "[1]", "result": 4.6, "unit": "µM"},
      {"measurement": "Ki", "setting": "[2]", "result": 0.32, "unit": "µM"}
    ]},
    {"smiles": "CN1Cc2c(N)cccc2[C@H](c2ccccc2)C1", "note": "[(+/-)-2-Methyl-4-phenyl-1,2,3,4-tetrahydro-isoquinolin-8-ylamine]", "values": [
      {"measurement": "Ki", "setting": "Histamine H1 receptor", "result": "> 10", "unit": "µM"},
      {"measurement": "Ki", "setting": "[1]", "result": 6.1, "unit": "µM"}
    ]},
    {"smiles": "CN(C)C[C@@H]1C2CCC(CC2)[C@@H]1c1ccc(Cl)c(Cl)c1", "note": "[CAS_62373-97-1]", "values": [
      {"measurement": "Ki", "setting": "Histamine H1 receptor", "result": 2, "unit": "µM"},
      {"measurement": "Ki", "setting": "[1]", "result": "> 10", "unit": "µM"}
    ]},
    {"smiles": "CNCCCN1c2ccccc2CCc2ccccc21", "note": "[Desmethylimipramine]", "values": [
      {"measurement": "Ki", "setting": "[1]", "result": 9.2, "unit": "µM"},
      {"measurement": "Ki", "setting": "[2]", "result": 0.6, "unit": "µM"}
    ]},
    {"smiles": "CNCCC(Oc1ccccc1C)c1ccccc1", "note": "(configuration not stated) [Methyl-(3-phenyl-3-o-tolyloxy-propyl)-amine(tomoxetine)]", "values": [
      {"measurement": "Ki", "setting": "Histamine H1 receptor", "result": 6.4, "unit": "µM"},
      {"measurement": "Ki", "setting": "[1]", "result": "> 10", "unit": "µM"},
      {"measurement": "Ki", "setting": "[2]", "result": "> 10", "unit": "µM"}
    ]}
  ]
}
